According to PubChem BioAssay AID1963875 (Molecular Pharmacology Branch, DTP, NCI, 2024):

Test system: KRAS-mutant PDC complex spheroid viability
Test: Anticancer human tumor 186277-243-T-J2-PDC patient-derived colon adenocarcinoma cell line growth inhibition [KRAS2]
Conditions: for IC50: curve of first compound; for viability, T/C: stronger effect = lower value
In short: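 KRAS-mutant tumor cells were grown as spheroids with HUVEC endothelial cells and human MSCs as stroma. Targeted agents were tested alone and with KRAS pathway inhibitors. Doses started at or near clinical Cmax, or 10 microM, descending half-log.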

[1] = second compound 0.1 µM, first compound 0.0316 µM
[2] = second compound 0.1 µM, first compound 0.1 µM
[3] = second compound 0.1 µM, first compound 0.316 µM
[4] = second compound 0.1 µM, first compound 1 µM
[5] = second compound 0.1 µM, first compound 3.16 µM
[6] = second compound 0.316 µM, first compound 0.0316 µM
[7] = second compound 0.316 µM, first compound 0.1 µM
[8] = second compound 0.316 µM, first compound 0.316 µM
[9] = second compound 0.316 µM, first compound 1 µM
[10] = second compound 0.316 µM, first compound 3.16 µM
[11] = second compound 1 µM, first compound 0.0316 µM
[12] = second compound 1 µM, first compound 0.1 µM
[13] = second compound 1 µM, first compound 0.316 µM
[14] = second compound 1 µM, first compound 1 µM
[15] = second compound 1 µM, first compound 3.16 µM
[16] = second compound 3.16 µM, first compound 0.0316 µM
[17] = second compound 3.16 µM, first compound 0.1 µM
[18] = second compound 3.16 µM, first compound 0.316 µM
[19] = second compound 3.16 µM, first compound 1 µM
[20] = second compound 3.16 µM, first compound 3.16 µM
[21] = second compound 10 µM, first compound 0.0316 µM
[22] = second compound 10 µM, first compound 0.1 µM
[23] = second compound 10 µM, first compound 0.316 µM
[24] = second compound 10 µM, first compound 1 µM
[25] = second compound 10 µM, first compound 3.16 µM
[26] = second compound 0.1 µM, first compound 0.01 µM
[27] = second compound 0.316 µM, first compound 0.01 µM
[28] = second compound 1 µM, first compound 0.01 µM
[29] = second compound 3.16 µM, first compound 0.01 µM
[30] = second compound 10 µM, first compound 0.01 µM
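For viability, T/C in this document: viability read after seven days of compound exposure; 100% = DMSO vehicle-treated spheroids so lower means less viable.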

## O=C(c1cc(Cc2n[nH]c(=O)c3ccccc23)ccc1F)N1CCN(C(=O)C2CC2)CC1 + CC1OCC2(CCN(c3cnc(Sc4ccnc(N)c4Cl)c(N)n3)CC2)C1N
Second compound 0.1 µM
  IC50: 6.48 µM
Second compound 0.316 µM
  IC50: 6.08 µM
Second compound 1 µM
  IC50: 3.95 µM
Second compound 3.16 µM
  IC50: 1.9 µM
Second compound 10 µM
  IC50: 0.614 µM
[1]
  viability, T/C: 118%
[2]
  viability, T/C: 112%
[3]
  viability, T/C: 114%
[4]
  viability, T/C: 109%
[5]
  viability, T/C: 81%
Second compound 0.1 µM, first compound 10 µM
  viability, T/C: 31.3%
[6]
  viability, T/C: 129%
[7]
  viability, T/C: 124%
[8]
  viability, T/C: 106%
[9]
  viability, T/C: 115%
[10]
  viability, T/C: 75%
Second compound 0.316 µM, first compound 10 µM
  viability, T/C: 28.8%
[11]
  viability, T/C: 122%
[12]
  viability, T/C: 113%
[13]
  viability, T/C: 126%
[14]
  viability, T/C: 103%
[15]
  viability, T/C: 56.8%
Second compound 1 µM, first compound 10 µM
  viability, T/C: 23.8%
[16]
  viability, T/C: 92.2%
[17]
  viability, T/C: 94.9%
[18]
  viability, T/C: 87.4%
[19]
  viability, T/C: 70.3%
[20]
  viability, T/C: 33.9%
Second compound 3.16 µM, first compound 10 µM
  viability, T/C: 16.3%
[21]
  viability, T/C: 86.7%
[22]
  viability, T/C: 66%
[23]
  viability, T/C: 62.9%
[24]
  viability, T/C: 45.8%
[25]
  viability, T/C: 24.9%
Second compound 10 µM, first compound 10 µM
  viability, T/C: 14.1%

## CC(=O)OC12COC1CC(O)C1(C)C(=O)C(O)C3=C(C)C(OC(=O)C(O)C(NC(=O)OC(C)(C)C)c4ccccc4)CC(O)(C(OC(=O)c4ccccc4)C21)C3(C)C (stereo not given) + CC1OCC2(CCN(c3cnc(Sc4ccnc(N)c4Cl)c(N)n3)CC2)C1N
Second compound 0.1 µM
  IC50: < 0.01 µM
Second compound 0.316 µM
  IC50: < 0.01 µM
Second compound 1 µM
  IC50: < 0.01 µM
Second compound 3.16 µM
  IC50: < 0.01 µM
Second compound 10 µM
  IC50: < 0.01 µM
[26]
  viability, T/C: 4.2%
[1]
  viability, T/C: 2.69%
[2]
  viability, T/C: 2.31%
[3]
  viability, T/C: 2.12%
[4]
  viability, T/C: 2.12%
[5]
  viability, T/C: 2.53%
[27]
  viability, T/C: 2.83%
[6]
  viability, T/C: 3.64%
[7]
  viability, T/C: 1.94%
[8]
  viability, T/C: 1.7%
[9]
  viability, T/C: 1.93%
[10]
  viability, T/C: 2.14%
[28]
  viability, T/C: 4.63%
[11]
  viability, T/C: 3.42%
[12]
  viability, T/C: 3.58%
[13]
  viability, T/C: 2.84%
[14]
  viability, T/C: 3.01%
[15]
  viability, T/C: 3.67%
[29]
  viability, T/C: 2.53%
[16]
  viability, T/C: 1.65%
[17]
  viability, T/C: 2.04%
[18]
  viability, T/C: 1.63%
[19]
  viability, T/C: 1.81%
[20]
  viability, T/C: 2.09%
[30]
  viability, T/C: 1.96%
[21]
  viability, T/C: 1.99%
[22]
  viability, T/C: 1.61%
[23]
  viability, T/C: 1.82%
[24]
  viability, T/C: 1.73%
[25]
  viability, T/C: 1.74%

## CN(C)C/C=C/C(=O)Nc1cc2c(Nc3ccc(F)c(Cl)c3)ncnc2cc1O[C@H]1CCOC1 + C=CC(=O)N1CCN(c2nc(=O)n(-c3c(C)ccnc3C(C)C)c3nc(-c4c(O)cccc4F)c(F)cc23)C(C)C1
Second compound 0.1 µM
  IC50: > 0.1 µM
Second compound 0.316 µM
  IC50: > 0.1 µM
Second compound 1 µM
  IC50: > 0.1 µM
Second compound 3.16 µM
  IC50: > 0.1 µM
Second compound 10 µM
  IC50: 0.0498 µM
Second compound 0.1 µM, first compound 0.000316 µM
  viability, T/C: 105%
Second compound 0.1 µM, first compound 0.001 µM
  viability, T/C: 93.7%
Second compound 0.1 µM, first compound 0.00316 µM
  viability, T/C: 106%
[26]
  viability, T/C: 102%
[1]
  viability, T/C: 122%
[2]
  viability, T/C: 109%
Second compound 0.316 µM, first compound 0.000316 µM
  viability, T/C: 95.8%
Second compound 0.316 µM, first compound 0.001 µM
  viability, T/C: 97.7%
Second compound 0.316 µM, first compound 0.00316 µM
  viability, T/C: 99.5%
[27]
  viability, T/C: 98.4%
[6]
  viability, T/C: 107%
[7]
  viability, T/C: 112%
Second compound 1 µM, first compound 0.000316 µM
  viability, T/C: 91.2%
Second compound 1 µM, first compound 0.001 µM
  viability, T/C: 106%
Second compound 1 µM, first compound 0.00316 µM
  viability, T/C: 91.5%
[28]
  viability, T/C: 101%
[11]
  viability, T/C: 113%
[12]
  viability, T/C: 105%
Second compound 3.16 µM, first compound 0.000316 µM
  viability, T/C: 93.1%
Second compound 3.16 µM, first compound 0.001 µM
  viability, T/C: 103%
Second compound 3.16 µM, first compound 0.00316 µM
  viability, T/C: 100%
[29]
  viability, T/C: 98.1%
[16]
  viability, T/C: 97.7%
[17]
  viability, T/C: 74.4%
Second compound 10 µM, first compound 0.000316 µM
  viability, T/C: 79.9%
Second compound 10 µM, first compound 0.001 µM
  viability, T/C: 68.8%
Second compound 10 µM, first compound 0.00316 µM
  viability, T/C: 77.3%
[30]
  viability, T/C: 66.3%
[21]
  viability, T/C: 55.2%
[22]
  viability, T/C: 40.6%
